Here are results for one molecule from PMC12041765, “The development of a high-throughput acoustic droplet ejection mass-spectrometry assay and a solid-supported membrane (SSM)-based electrophysiological assay to study the pharmacological inhibition of SLC1-A3, -A2 and -A1 in a drug discovery program” (Frontiers in Pharmacology, 2025).

Experiment [1] relates to EAAT1. The following applies: cited from earlier work.
Experiment [2] relates to EAAT2. Also on record: method as in Arriza et al. (1994). The following applies: oocytes, Voltage-Clamp, ref Arriza et al. (1994); cited from earlier work.
For experiment [3], the system named is EAAT2. Also on record: method as in Arriza et al. (1994). To be noted: radio-labeled uptake, COS7 cells, ref Arriza et al. (1994); cited from earlier work.
In a further experiment the target is T1, SLC1A2 (EAAT2) (Homo sapiens, UniProt P43004).
T1 construct: host or cells: HEK293-JumpIn, doxycycline-induced
Nature of the experiment: SSM-based electrophysiology (SURFE2R 96 SE), EAAT2 membrane fragments. Type of experiment: biochemical. To be noted: glutamic acid up to 500 µM, membrane 4 µg/well, read-out: SURFE^2R Km.

In experiment [4] the test system is EAAT1. The following applies: glutamic acid uptake assay, ref Vallejo-Illarramendi et al. (2005); cited from earlier work.
The test system of experiment [5] is EAAT1. The following applies: radio-labeled uptake, COS7 cells, ref Arriza et al. (1994); cited from earlier work.
The test system of experiment [6] is EAAT1. The following applies: oocytes, Voltage-Clamp, ref Arriza et al. (1994); cited from earlier work.
The test system of experiment [7] is EAAT3. The following applies: oocytes, Voltage-Clamp, ref Arriza et al. (1994); cited from earlier work.
Experiment [8] deals with EAAT3. The following applies: cited from earlier work.
The test system of experiment [9] is EAAT2. The following applies: cited from earlier work.
The subject of experiment [10] is EAAT3. The following applies: radio-labeled uptake, COS7 cells, ref Arriza et al. (1994); cited from earlier work.
[11] abbreviates: FLIPR membrane potential assay, ref Faure et al. (2006).
[12] abbreviates: similar methodologies (FLIPR), ref Alaux et al. (2005).

Like-named read-outs stand apart in the source and are kept apart here.

T1 sequence (P43004 whole entry): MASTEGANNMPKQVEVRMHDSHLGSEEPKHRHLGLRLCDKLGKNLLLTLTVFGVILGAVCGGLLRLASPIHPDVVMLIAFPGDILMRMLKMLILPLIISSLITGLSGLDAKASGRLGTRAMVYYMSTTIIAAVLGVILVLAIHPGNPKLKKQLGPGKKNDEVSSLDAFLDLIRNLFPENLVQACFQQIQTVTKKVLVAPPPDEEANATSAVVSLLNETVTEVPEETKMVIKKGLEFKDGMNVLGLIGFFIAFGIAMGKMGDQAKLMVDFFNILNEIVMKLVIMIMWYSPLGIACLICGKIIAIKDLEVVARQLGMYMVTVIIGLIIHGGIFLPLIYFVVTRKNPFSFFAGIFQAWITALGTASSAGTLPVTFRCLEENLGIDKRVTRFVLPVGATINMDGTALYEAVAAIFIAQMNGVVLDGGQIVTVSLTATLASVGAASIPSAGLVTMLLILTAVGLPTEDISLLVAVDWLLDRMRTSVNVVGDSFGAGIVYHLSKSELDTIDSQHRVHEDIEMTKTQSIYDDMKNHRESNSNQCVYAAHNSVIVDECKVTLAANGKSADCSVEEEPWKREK

Consider `N[C@@H](CCC(=O)O)C(=O)O` [glutamic acid, L-glutamic acid], for which the Michaelis constant (Km) – broadly, the concentration of substrate that gives half-maximal velocity – in the experiment with EAAT1 [1] (setting [11]) was 7.9 µM; in the experiment on EAAT1 [1] (setting [12]), 9.2 µM; with EAAT2 [2], 18 ± 3 µM; in the experiment with EAAT2 [3] it was 97 ± 4 µM; on SLC1A2 (EAAT2), 9.5 µM; in the experiment on EAAT1 [4] it was 27.5 ± 2.3 µM. Besides, the Km is 48 ± 10 µM with EAAT1 [5]; 20 ± 3 µM with EAAT1 [6]; 28 ± 6 µM in the experiment on EAAT3 [7]; 9.9 µM with EAAT3 [8] (setting [11]); 25 µM with EAAT3 [8] (setting [12]); 21 µM in the experiment on EAAT2 [9] (setting [11]). For the same molecule, the Michaelis-Menten constant (Km) with EAAT2 [9] (setting [12]) was 21 µM; with EAAT3 [10], 62 ± 8 µM.
